Measurements from ChEMBL document CHEMBL1126102, “2-(N'-aralkylidenehydrazino)adenosines: potent and selective coronary vasodilators” (J Med Chem, 1992).
pEC50: −log10 of the molar value.

Key:
Adenosine receptor A1 = biological target: T1, Adenosine receptor A1 (Cavia porcellus, UniProt P47745); assay: Tested for adenosine A1 receptor agonistic activity by determining concentration needed to prolong the stimulus-QRS interval by 50% of the maximum response; assay type: functional
T1 sequence (P47745 whole entry): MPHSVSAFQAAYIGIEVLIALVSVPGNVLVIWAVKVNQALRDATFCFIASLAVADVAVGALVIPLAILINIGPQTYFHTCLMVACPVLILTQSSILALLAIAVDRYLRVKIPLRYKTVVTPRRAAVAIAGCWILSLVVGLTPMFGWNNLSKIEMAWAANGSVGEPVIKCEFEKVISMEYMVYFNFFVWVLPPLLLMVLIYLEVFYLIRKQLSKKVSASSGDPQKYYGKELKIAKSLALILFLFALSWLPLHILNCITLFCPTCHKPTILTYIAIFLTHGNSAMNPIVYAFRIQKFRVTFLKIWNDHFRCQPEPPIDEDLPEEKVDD

Adenosine A2 receptor = assay: Tested for adenosine A2 receptor agonistic activity by determining coronary vasodilation; assay type: functional, Cavia porcellus

| pEC50 (Adenosine receptor A1) | -Log EC50 (Adenosine A2 receptor) | Compound |
| --- | --- | --- |
| 5.04 | 8.47 | Nc1nc(N/N=C/c2cccc(F)c2)nc2c1ncn2C1O[C@H](CO)[C@@H](O)[C@H]1O (stereo not given in full) |
| 4.77 | 8.36 | Cc1cccc(/C=N/Nc2nc(N)c3ncn(C4O[C@H](CO)[C@@H](O)[C@H]4O)c3n2)c1 (stereo not given in full) |
| 5.05 | 7.55 | C/C(=N\Nc1nc(N)c2ncn(C3O[C@H](CO)[C@@H](O)[C@H]3O)c2n1)c1cccs1 (stereo not given in full) |
| 4.08 | 8.04 | Nc1nc(N/N=C/Cc2ccccc2)nc2c1ncn2C1O[C@H](CO)[C@@H](O)[C@H]1O (stereo not given in full) |
| 4.51 | 8.18 | Nc1nc(N/N=C/c2ccc(CCC(=O)O)cc2)nc2c1ncn2C1O[C@H](CO)[C@@H](O)[C@H]1O (stereo not given in full) |
| 4.31 | 8.34 | Nc1nc(N/N=C/c2cccc(Cl)c2)nc2c1ncn2C1O[C@H](CO)[C@@H](O)[C@H]1O (stereo not given in full) |
| 4.24 | 8.28 | Nc1nc(N/N=C/c2cc(Br)cs2)nc2c1ncn2C1O[C@H](CO)[C@@H](O)[C@H]1O (stereo not given in full) |
| 4.58 | 7.96 | Nc1nc(N/N=C/c2ccncc2)nc2c1ncn2C1O[C@H](CO)[C@@H](O)[C@H]1O (stereo not given in full) |
| 4.72 | 8.28 | CC(C)(C)OC(=O)CCc1ccc(CCNc2nc(N)c3ncn(C4O[C@H](CO)[C@@H](O)[C@H]4O)c3n2)cc1 (stereo not given in full) |
| 4.08 | 8.64 | Nc1nc(N/N=C/c2ccccc2)nc2c1ncn2C1O[C@H](CO)[C@@H](O)[C@H]1O (stereo not given in full) |
| 4.92 | 8.52 | CC(C)(C)OC(=O)CCc1ccc(/C=N/Nc2nc(N)c3ncn(C4O[C@H](CO)[C@@H](O)[C@H]4O)c3n2)cc1 (stereo not given in full) |
| 4.18 | – | Nc1nc(N/N=C/CCc2ccccc2)nc2c1ncn2C1O[C@H](CO)[C@@H](O)[C@H]1O (stereo not given in full) |
| 4.91 | 6.86 | COc1ccccc1/C=N/Nc1nc(N)c2ncn(C3O[C@H](CO)[C@@H](O)[C@H]3O)c2n1 (stereo not given in full) |
| 5.38 | 8.49 | C/C(=N\Nc1nc(N)c2ncn(C3O[C@H](CO)[C@@H](O)[C@H]3O)c2n1)c1ccc(F)cc1 (stereo not given in full) |
| 6.08 | 8.02 | Nc1nc(N/N=C/c2cccc3ccccc23)nc2c1ncn2C1O[C@H](CO)[C@@H](O)[C@H]1O (stereo not given in full) |
| 4.38 | 7.86 | Nc1nc(N/N=C/c2cccs2)nc2c1ncn2C1O[C@H](CO)[C@@H](O)[C@H]1O (stereo not given in full) |
| 4.49 | 7.83 | Nc1nc(N/N=C/c2cccnc2)nc2c1ncn2C1O[C@H](CO)[C@@H](O)[C@H]1O (stereo not given in full) |
| 4.38 | 8.43 | Nc1nc(N/N=C/c2ccccc2F)nc2c1ncn2C1O[C@H](CO)[C@@H](O)[C@H]1O (stereo not given in full) |
| 4.71 | 7.91 | COc1cccc(/C=N/Nc2nc(N)c3ncn(C4O[C@H](CO)[C@@H](O)[C@H]4O)c3n2)c1 (stereo not given in full) |
| 4.36 | 7.92 | Cc1ccccc1/C=N/Nc1nc(N)c2ncn(C3O[C@H](CO)[C@@H](O)[C@H]3O)c2n1 (stereo not given in full) |
| 4.31 | 8.12 | Nc1nc(N/N=C/c2ccccc2Cl)nc2c1ncn2C1O[C@H](CO)[C@@H](O)[C@H]1O (stereo not given in full) |
| – | 7.1 | NNc1nc(N)c2ncn(C3O[C@H](CO)[C@@H](O)[C@H]3O)c2n1 (stereo not given in full) |
| 4.22 | 7.81 | Nc1nc(N/N=C/c2ccsc2)nc2c1ncn2C1O[C@H](CO)[C@@H](O)[C@H]1O (stereo not given in full) |
| 5.52 | 7.9 | C/C(=N\Nc1nc(N)c2ncn(C3O[C@H](CO)[C@@H](O)[C@H]3O)c2n1)c1ccccc1 (stereo not given in full) |
| 4.38 | 8.24 | Nc1nc(N/N=C/c2ccccn2)nc2c1ncn2C1O[C@H](CO)[C@@H](O)[C@H]1O (stereo not given in full) |
| 5.58 | 8.38 | Nc1nc(N/N=C/c2ccc3ccccc3c2)nc2c1ncn2C1O[C@H](CO)[C@@H](O)[C@H]1O (stereo not given in full) |
| 4.90 | 8.61 | Nc1nc(N/N=C/c2ccc(F)cc2)nc2c1ncn2C1O[C@H](CO)[C@@H](O)[C@H]1O (stereo not given in full) |
| 3.95 | 7.95 | Nc1nc(NCCc2ccc(CCC(=O)O)cc2)nc2c1ncn2C1O[C@H](CO)[C@@H](O)[C@H]1O (stereo not given in full) |

| Compound | pEC50 (Adenosine receptor A1) | -Log EC50 (Adenosine A2 receptor) |
| --- | --- | --- |
| Cc1ccc(/C=N/Nc2nc(N)c3ncn(C4O[C@H](CO)[C@@H](O)[C@H]4O)c3n2)cc1 (stereo not given in full) | 4.40 | – |
